Experimental data reported in patent publication US20250195536A1, “BICYCLOOCTANE KRAS INHIBITORS” (Incyte Corporation, priority 2023, published 2025).

Assays:
KRAS G12D = KRAS G12D (Homo sapiens, UniProt P01116, G12D); assay: GDP-GTP exchange assay (KRAS G12D); assay type: biochemical; settings: bodipy-GDP/GppNHp exchange with SOS1; 4 h pre-incubation, 2 h reaction;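 note: one dagger IC50 up to 100 nM and two daggers above 100 nM up to 1 μM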
Experimental: (§1) The inhibitor potency of the exemplified compounds was determined in a fluorescence based guanine nucleotide exchange assay, which measures the exchange of bodipy-GDP (fluorescently labeled GDP) for GppNHp (Non-hydrolyzable GTP analog) to generate the active state of KRAS in the presence of SOS1 (guanine nucleotide exchange factor). Inhibitors were serially diluted in DMSO and a volume of 0.1 μL was transferred to the wells of a black low volume 384-well plate. 5 μL/well volume of bodipy-loaded KRAS G12D diluted to 2.5 nM in assay buffer (25 mM Hepes pH 7.5, 50 mM NaCl, 10 mM MgCl2 and 0.01% Brij-35) was added to the plate and pre-incubated with inhibitor for 4 h at r.t. Appropriate controls (enzyme with no inhibitor or with a G12D inhibitor) were included on the plate. The exchange was initiated by the addition of a 5 μL/well volume containing 1 mM GppNHp and 300 nM SOS1 in assay buffer. The 10 μL/well reaction concentration of the bodipy-loaded KRAS G12D, GppNHp, and SOS1 were 2.5 nM, 500 μM, and 150 nM, respectively. The reaction plates were incubated at r.t. for 2 h, a time estimated for complete GDP-GTP exchange in the absence of inhibitor. For the KRAS G12V mutant, similar guanine nucleotide exchange assays were used with 2.5 nM as final concentration for the bodipy loaded KRAS proteins and 3 h incubation after adding GppNHp-SOS1 mixture. A cyclic peptide described to selectively bind G12D mutant (Sakamoto et al., BBRC 484.3 (2017), 605-611) or internal compounds with confirmed binding were used as positive controls in the assay plates. Fluorescence intensities were measured on a PheraStar plate reader instrument (BMG Labtech) with excitation at 485 nm and emission at 520 nm.
(§2) Either GraphPad prism or Genedata Screener SmartFit was used to analyze the data. The IC50 values were derived by fitting the data to a four parameter logistic equation producing a sigmoidal dose-response curve with a variable Hill coefficient.
(§3) The symbol “⬆” indicates IC50 100 nM, “⬆⬆” indicates IC50 >100 nM but ≤1 μM; and “⬆⬆⬆” indicates IC50 is >1 μM but ≤5 μM, “⬆⬆⬆⬆” indicates IC50 is >5 μM but ≤10 μM. “NA” indicates IC50 not available.

KRAS G12V = KRAS G12V (Homo sapiens, UniProt P01116, G12V); assay: GDP-GTP exchange assay (KRAS G12V); assay type: biochemical; settings: bodipy-GDP/GppNHp exchange with SOS1; 3 h incubation after GppNHp-SOS1;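 note: one dagger IC50 up to 100 nM and two daggers above 100 nM up to 1 μM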
KRAS G12V, sequence (P01116 1-188 isoform P01116-2 G12V): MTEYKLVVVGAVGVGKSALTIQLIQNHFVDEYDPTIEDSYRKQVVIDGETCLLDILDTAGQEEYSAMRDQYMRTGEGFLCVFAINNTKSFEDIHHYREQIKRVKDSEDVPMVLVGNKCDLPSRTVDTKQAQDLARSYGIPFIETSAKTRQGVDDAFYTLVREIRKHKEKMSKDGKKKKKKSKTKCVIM
Experimental: as §1, §2, §3

[1] = Caco2 assay (permeability, Papp A-B); assay type: in vitro ADME; settings: human, Caco-2, absorptive direction (A-B), 50 μM test compound, 4% BSA in receiver
Experimental: Caco-2 cells are grown at 37° C. in an atmosphere of 5% CO2 in DMEM growth medium supplemented with 10% (v/v) fetal bovine serum, 1% (v/v) nonessential amino acids, penicillin (100 U/mL), and streptomycin (100 μg/mL). Confluent cell monolayers are subcultured every 7 days or 4 days for Caco-2 by treatment with 0.05% trypsin containing […]. Caco-2 cells are seeded in 96-well Transwell plates. The seeding density for Caco-2 cells is 14,000 cells/well. DMEM growth medium is replaced every other day after seeding. Cell monolayers are used for transport assays between 22 and 25 days for Caco-2 cells.
Cell culture medium is removed and replaced with HBSS. To measure the TEER, the HBSS is added into the donor compartment (apical side) and receiver compartment (basolateral side). The TEER is measured by using a REMS Autosampler to ensure the integrity of the cell monolayers. Caco-2 cell monolayers with TEER values 300 Ω·cm^2 are used for transport experiments. To determine the Papp in the absorptive direction (A-B), solution of test compound (50 μM) in HBSS is added to the donor compartment (apical side), while HBSS solution with 4% BSA is added to the receiver compartment (basolateral side). The apical volume was 0.075 mL, and the basolateral volume is 0.25 mL. The incubation period is 120 min. at 37° C. in an atmosphere of 5% CO2. At the end of the incubation period, samples from the donor and receiver sides are removed and an equal volume of MeCN is added for protein precipitation. The supernatants are collected after centrifugation (3000 rpm, Allegra X-14R Centrifuge from Beckman Coulter, Indianapolis, IN) for LCMS analysis. The permeability value is determined according to the equation:
Papp(cm/s)=(F*VD)/(SA*MD),
where the flux rate (F, mass/time) is calc. from the slope of cumulative amounts of compound of interest on the receiver side, SA is the surface area of the cell membrane, VD is the donor volume, and MD is the initial amount of the solution in the donor chamber.
The symbol “+” indicates a Caco-2 value of ≤0.5, “++” indicates a Caco-2 value of >0.5 but ≤1; and “+++” indicates a Caco-2 value of >1. “NA” indicates Caco-2 value not available.

KRAS G12D, sequence (P01116 1-188 isoform P01116-2 G12D): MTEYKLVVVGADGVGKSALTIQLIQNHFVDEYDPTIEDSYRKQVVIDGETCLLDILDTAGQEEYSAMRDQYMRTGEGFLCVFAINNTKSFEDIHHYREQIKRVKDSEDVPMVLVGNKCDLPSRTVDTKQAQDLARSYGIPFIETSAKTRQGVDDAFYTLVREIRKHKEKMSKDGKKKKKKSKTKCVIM

With `Cc1nc2c(F)c(-c3cccc(Cl)c3Cl)c(CCC#N)cc2c2c1cc([C@H]1[C@H]3C[C@H](CN(c4ccnc(OCC5CC5)c4)C3)N1C(=O)C1CC1)n2[C@H]1[C@H]2CN[C@@H]1C2` (atropisomer, axis not shown; (Ra)) [Example 82, 3-((Ra)-1-((1R,4R,5S)-2-azabicyclo[2.1.1]hexan-5-yl)-2-((1S,5R,7R)-6-(cyclopropanecarbonyl)-3-(2-(cyclopropylmethoxy)pyridin-4-yl)-3,6-diazabicyclo[3.2.1]octan-7-yl)-7-(2,3-dichlorophenyl)-6-fluoro-4-methyl-1H-pyrrolo[3,2-c]quinolin-8-yl)propanenitrile] the “G12D_exchange (KRAS_G12D exchange assay IC50)” value (shortened to “G12D_exchange”) (KRAS G12D) was “†” and the “G12V_exchange (KRAS_G12V exchange assay IC50)” value (from here on “G12V_exchange”) (KRAS G12V) was “†”.
With `Cc1nc2c(F)c(-c3cccc(Cl)c3Cl)c(CCC#N)cc2c2c1cc([C@H]1[C@H]3C[C@H](CN(c4ncc(C)n4C)C3)N1C(=O)C1CC1)n2[C@H]1[C@H]2CN[C@@H]1C2` (atropisomer, axis not shown; (Ra)) [Example 101, 3-((Ra)-1-((1R,4R,5S)-2-azabicyclo[2.1.1]hexan-5-yl)-2-((1S,5R,7R)-6-(cyclopropanecarbonyl)-3-(1,5-dimethyl-1H-imidazol-2-yl)-3,6-diazabicyclo[3.2.1]octan-7-yl)-7-(2,3-dichlorophenyl)-6-fluoro-4-methyl-1H-pyrrolo[3,2-c]quinolin-8-yl)propanenitrile] the “G12D_exchange” value (KRAS G12D) was “†” and the “G12V_exchange” value (KRAS G12V) was “†”.
In the case of `Cc1nc2c(F)c(-c3cccc(Cl)c3Cl)c(CCC#N)cc2c2c1cc([C@H]1[C@H]3C[C@H](CN(c4ncc(C(F)F)s4)C3)N1C(=O)C1CC1)n2[C@H]1[C@H]2CN[C@@H]1C2` (atropisomer, axis not shown; (Ra)) [Example 102, 3-((Ra)-1-((1R,4R,5S)-2-azabicyclo[2.1.1]hexan-5-yl)-2-((1S,5R,7R)-6-(cyclopropanecarbonyl)-3-(5-(difluoromethyl)thiazol-2-yl)-3,6-diazabicyclo[3.2.1]octan-7-yl)-7-(2,3-dichlorophenyl)-6-fluoro-4-methyl-1H-pyrrolo[3,2-c]quinolin-8-yl)propanenitrile], the “G12D_exchange” value (KRAS G12D) is reported as “†” and the “G12V_exchange” value (KRAS G12V) is reported as “†”.
In the case of `Cc1nc2c(F)c(-c3cccc(Cl)c3Cl)c(CCC#N)cc2c2c1cc([C@H]1[C@H]3C[C@H](CN(C(=O)NCC(F)(F)F)C3)N1C(=O)C1CC1)n2[C@H]1[C@H]2CN[C@@H]1C2` (atropisomer, axis not shown; (Ra)) [Example 109, (1 S,5R,7R)-7-((Ra)-1-((1R,4R,5S)-2-Azabicyclo[2.1.1]hexan-5-yl)-8-(2-cyanoethyl)-7-(2,3-dichlorophenyl)-6-fluoro-4-methyl-1H-pyrrolo[3,2-c]quinolin-2-yl)-6-(cyclopropanecarbonyl)-N-(2,2,2-trifluoroethyl)-3,6-diazabicyclo[3.2.1]octane-3-carboxamide], the “G12D_exchange” value (KRAS G12D) is reported as “†” and the “G12V_exchange” value (KRAS G12V) is reported as “†”.
In the case of `Cc1nc2c(F)c(-c3cccc(Cl)c3Cl)c(CCC#N)cc2c2c1cc(C1C3CC(CN(C4CCCCC4)C3)N1C(=O)C1CC1)n2C1C2CNC1C2` (atropisomer, axis not shown; (Ra)) [Example 114, 3-((Ra)-1-((1R,4R,5S)-2-Azabicyclo[2.1.1]hexan-5-yl)-2-((1R,5R,7R)-3-cyclohexyl-6-(cyclopropanecarbonyl)-3,6-diazabicyclo[3.2.1]octan-7-yl)-7-(2,3-dichlorophenyl)-6-fluoro-4-methyl-1H-pyrrolo[3,2-c]quinolin-8-yl)propanenitrile], the “G12D_exchange” value (KRAS G12D) is reported as “†” and the “G12V_exchange” value (KRAS G12V) is reported as “†”.
For `Cc1nc2c(F)c(-c3cccc(Cl)c3Cl)c(CCC#N)cc2c2c1cc([C@H]1[C@H]3C[C@H](CN(c4ccc(C(F)(F)F)cc4)C3=O)N1C(=O)C1CC1)n2[C@H]1[C@H]2CN[C@@H]1C2` (atropisomer, axis not shown; (Ra)) [Example 120a, 3-((Ra)-1-((1R,4R,5S)-2-Azabicyclo[2.1.1]hexan-5-yl)-2-((1R,5R,7R)-6-(cyclopropanecarbonyl)-2-oxo-3-(4-(trifluoromethyl)phenyl)-3,6-diazabicyclo[3.2.1]octan-7-yl)-7-(2,3-dichlorophenyl)-6-fluoro-4-methyl-1H-pyrrolo[3,2-c]quinolin-8-yl)propanenitrile], the “G12D_exchange” value (KRAS G12D) was “††” and the “G12V_exchange” value (KRAS G12V) was “†”.
For `Cc1nc2c(F)c(-c3cccc(Cl)c3Cl)c(CCC#N)cc2c2c1cc([C@H]1[C@H]3C[C@H](C(=O)N(c4ccc(C(F)(F)F)cc4)C3)N1C(=O)C1CC1)n2[C@H]1[C@H]2CN[C@@H]1C2` (atropisomer, axis not shown; (Ra)) [Example 120b, 3-((Ra)-1-((1R,4R,5S)-2-Azabicyclo[2.1.1]hexan-5-yl)-2-((1S,5R,7R)-6-(cyclopropanecarbonyl)-4-oxo-3-(4-(trifluoromethyl)phenyl)-3,6-diazabicyclo[3.2.1]octan-7-yl)-7-(2,3-dichlorophenyl)-6-fluoro-4-methyl-1H-pyrrolo[3,2-c]quinolin-8-yl)propanenitrile], the “G12D_exchange” value (KRAS G12D) was “†” and the “G12V_exchange” value (KRAS G12V) was “†”.
With `[2H]C1([2H])[C@@H]2C[C@H](CN1c1ncc(C(C)C)s1)N(C(=O)C1CC1)[C@H]2c1cc2c(C)nc3c(F)c(-c4cccc(Cl)c4Cl)c(CCC#N)cc3c2n1[C@H]1[C@H]2CN[C@@H]1C2` (atropisomer, axis not shown; (Ra)) [Example 123, 3-((Ra)-1-((1R,4R,5S)-2-Azabicyclo[2.1.1]hexan-5-yl)-2-((1 S,5R,7R)-6-(cyclopropanecarbonyl)-3-(5-isopropylthiazol-2-yl)-3,6-diazabicyclo[3.2.1]octan-7-yl-2,2-d2)-7-(2,3-dichlorophenyl)-6-fluoro-4-methyl-1H-pyrrolo[3,2-c]quinolin-8-yl)propanenitrile] the “G12D_exchange” value (KRAS G12D) was “††” and the “G12V_exchange” value (KRAS G12V) was “†”.
For `COC(=O)N1[C@@H]2C[C@@H](CN(c3nccnc3OC)C2)[C@@H]1c1cc2c(C)nc3c(F)c(-c4cccc(Cl)c4Cl)c(CCC#N)cc3c2n1[C@H]1[C@H]2CN[C@@H]1C2` (atropisomer, axis not shown; (Ra)) [Example 125, Methyl (1 S,5R,7R)-7-((Ra)-1-((1R,4R,5S)-2-azabicyclo[2.1.1]hexan-5-yl)-8-(2-cyanoethyl)-7-(2,3-dichlorophenyl)-6-fluoro-4-methyl-1H-pyrrolo[3,2-c]quinolin-2-yl)-3-(3-methoxypyrazin-2-yl)-3,6-diazabicyclo[3.2.1]octane-6-carboxylate], the Papp A→B at 120 min, 50 μM [1] was > 1 ×10⁻⁶ cm/s and the “G12V_exchange” value (KRAS G12V) was “†”.
